In patent US20230365554A1, “SUBSTITUTED PYRROLO-PYRIDINONE DERIVATIVES AND THERAPEUTIC USES THEREOF” (The Broad Institute, Inc., priority 2020, published 2023):

Biological target: wild-type Epidermal Growth Factor Receptor (EGFR) (Homo sapiens (Human), UniProt P00533)
Assay: WT-EGFR kinase assay (TR-FRET, 2 mM ATP)
Assay type: biochemical
Conditions: median or individual measurements, Table 3, read-out: EGFR Wildtyp-2mM ATP IC50 [mol/l] (median)
Outline: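 GST-fused human EGFR (R669–A1210, Sf9-expressed) pre-incubated 15 min with compound, then reacted 30 min at 22° C with 2 mM ATP and 1 μM biotinylated peptide in Hepes pH 7.0 buffer. Phosphopeptide detected by HTRF (Tb anti-phosphotyrosine/streptavidin-XL665, 665/620 nm ratio); normalised to no-inhibitor and no-enzyme controls.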

Chain of wild-type Epidermal Growth Factor Receptor (EGFR) (P00533 669-1210): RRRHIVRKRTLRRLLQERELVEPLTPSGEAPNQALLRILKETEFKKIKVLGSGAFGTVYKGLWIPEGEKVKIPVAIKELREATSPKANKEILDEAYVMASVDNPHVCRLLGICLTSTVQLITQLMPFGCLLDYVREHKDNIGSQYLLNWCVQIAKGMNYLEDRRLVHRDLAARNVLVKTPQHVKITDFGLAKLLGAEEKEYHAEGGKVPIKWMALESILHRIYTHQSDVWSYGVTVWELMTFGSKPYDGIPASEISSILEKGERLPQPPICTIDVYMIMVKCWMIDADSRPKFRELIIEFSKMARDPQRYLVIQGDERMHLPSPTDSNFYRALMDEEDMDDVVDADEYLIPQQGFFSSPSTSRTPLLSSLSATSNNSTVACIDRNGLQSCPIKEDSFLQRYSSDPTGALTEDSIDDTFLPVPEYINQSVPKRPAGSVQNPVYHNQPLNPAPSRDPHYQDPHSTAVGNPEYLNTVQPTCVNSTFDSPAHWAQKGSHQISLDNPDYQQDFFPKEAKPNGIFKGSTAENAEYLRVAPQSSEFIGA

SMILES | IC50
CCC1CNC(=O)c2c1[nH]c(-c1ccnc(NC(=O)Cc3ccc(F)cc3)c1)c2Nc1ccccc1 (single isomer, unassigned) [Example 3, N-{4-[3-anilino-7-ethyl-4-oxo-4,5,6,7-tetrahydro-1H-pyrrolo[3,2-c]pyridin-2-yl]pyridin-2-yl}-2-(4-fluorophenyl)acetamide] | 0.32 µM
CN1CC(CC2CC2)c2[nH]c(-c3ccnc(NC(=O)Cc4ccc(F)cc4)c3)c(Nc3ccccc3)c2C1=O (single isomer, unassigned) [Example 20, N-{4-[3-anilino-7-(cyclopropylmethyl)-5-methyl-4-oxo-4,5,6,7-tetrahydro-1H-pyrrolo[3,2-c]pyridin-2-yl]pyridin-2-yl}-2-(4-fluorophenyl)acetamide] | 8 µM
Cc1cn(C)c(=O)c2c(Nc3ccccc3)c(-c3ccnc(NC(=O)C(C)c4ccc(F)cc4)c3)[nH]c12 (single isomer, unassigned) [Example 41, N-[4-(3-anilino-5,7-dimethyl-4-oxo-4,5-dihydro-1H-pyrrolo[3,2-c]pyridin-2-yl)pyridin-2-yl]-2-(4-fluorophenyl)propanamide] | 9.1 µM
O=C1N[C@@H]2CCC[C@@H]2c2[nH]c(-c3ccnc(NC(=O)C(CC(F)F)c4ccc(F)cc4)c3)c(Nc3ccccc3)c21 (mixture of isomers) [Example 21, (2RS)—N-{4-[cis-3-anilino-4-oxo-1,4,5,5a,6,7,8,8a-octahydrocyclopenta[b]pyrrolo[2,3-d]pyridin-2-yl]pyridin-2-yl}-4,4-difluoro-2-(4-fluorophenyl)butanamide] | 4.5 µM
CC1CN(C)C(=O)c2c1[nH]c(-c1ccnc(NC(=O)C(C)c3ccc(F)cc3)c1)c2Nc1ccccc1 (racemic) [Example 9, N-{4-[(7RS)-3-anilino-5,7-dimethyl-4-oxo-4,5,6,7-tetrahydro-1H-pyrrolo[3,2-c]pyridin-2-yl]pyridin-2-yl}-2-(4-fluorophenyl)propanamide] | 13 µM
